“And” between values parts separate entries of the source, which are not always exact repeats. Equal values may be shown once. Inconclusive results and toxic doses are left out.
System: L1210 leukemia ip in BDF1 mice, survival T/C
Experiment: NCI In Vivo Anticancer Drug Screen. Data for tumor model L1210 Leukemia (intraperitoneal) in B6D2F1 (BDF1) mice
Settings: endpoint: mean survival time, higher = longer survival
Outline: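 Read-out is survival time, reported as the treated-group measurement over the vehicle-control measurement.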

[1] = dose: 50.0 mg/kg/injection, schedule: Q01DX009 (ip), vehicle: saline
[2] = dose: 100.0 mg/kg/injection, schedule: Q01DX009 (ip), vehicle: saline
[3] = dose: 100.0 mg/kg/injection, schedule: Q01DX009 (ip), vehicle: saline with Tween-80
[4] = dose: 200.0 mg/kg/injection, schedule: Q01DX009 (ip), vehicle: saline with Tween-80
[5] = dose: 400.0 mg/kg/injection, schedule: Q01DX009 (ip), vehicle: saline with Tween-80
[6] = dose: 100.0 mg/kg/injection, schedule: Q01DX001 (ip), vehicle: carboxymethylcellulose (CMC)
[7] = dose: 200.0 mg/kg/injection, schedule: Q01DX001 (ip), vehicle: carboxymethylcellulose (CMC)
[8] = dose: 400.0 mg/kg/injection, schedule: Q01DX001 (ip), vehicle: carboxymethylcellulose (CMC)
[9] = dose: 100.0 mg/kg/injection, schedule: Q04DX002 (ip), vehicle: Klucel (hydroxypropylcellulose) (HPC)
[10] = dose: 100.0 mg/kg/injection, schedule: Q04DX003 (ip), vehicle: saline with Tween-80
[11] = dose: 200.0 mg/kg/injection, schedule: Q04DX002 (ip), vehicle: Klucel (hydroxypropylcellulose) (HPC)
[12] = dose: 200.0 mg/kg/injection, schedule: Q04DX003 (ip), vehicle: saline with Tween-80
[13] = dose: 400.0 mg/kg/injection, schedule: Q04DX002 (ip), vehicle: Klucel (hydroxypropylcellulose) (HPC)
[14] = dose: 100.0 mg/kg/injection, schedule: Q01DX001 (ip), vehicle: saline
[15] = dose: 200.0 mg/kg/injection, schedule: Q01DX001 (ip), vehicle: saline
[16] = dose: 100.0 mg/kg/injection, schedule: Q01DX009 (ip), vehicle: Klucel (hydroxypropylcellulose) (HPC)
[17] = dose: 200.0 mg/kg/injection, schedule: Q01DX009 (ip), vehicle: Klucel (hydroxypropylcellulose) (HPC)
[18] = dose: 100.0 mg/kg/injection, schedule: Q04DX003 (ip), vehicle: saline
[19] = dose: 200.0 mg/kg/injection, schedule: Q04DX003 (ip), vehicle: saline
[20] = dose: 400.0 mg/kg/injection, schedule: Q04DX003 (ip), vehicle: saline
[21] = dose: 400.0 mg/kg/injection, schedule: Q04DX003 (ip), vehicle: saline with Tween-80
[22] = dose: 400.0 mg/kg/injection, schedule: Q01DX009 (ip), vehicle: Klucel (hydroxypropylcellulose) (HPC)

OC1OCCOC1O (stereo not drawn)
T/C [1]: 100 % of control
T/C [2]: 100 % of control
T/C (dose: 200.0 mg/kg/injection, schedule: Q01DX009 (ip), vehicle: saline): 109 % of control
T/C (dose: 400.0 mg/kg/injection, schedule: Q01DX009 (ip), vehicle: saline): 103 % of control

O=[N+]([O-])c1cccc(OCCOc2ccccc2)c1
T/C (dose: 25.0 mg/kg/injection, schedule: Q01DX009 (ip), vehicle: saline with Tween-80): 116 % of control
T/C (dose: 33.0 mg/kg/injection, schedule: Q01DX009 (ip), vehicle: saline with Tween-80): 98 % of control
T/C (dose: 75.0 mg/kg/injection, schedule: Q01DX009 (ip), vehicle: saline with Tween-80): 96 % of control
T/C [3]: 102 % of control and 86 % of control
T/C [4]: 102 % of control
T/C [5]: 102 % of control

Nc1ccc2c(c1)Cc1cc(N)c(Br)cc1-2
T/C [6]: 105 % of control
T/C [7]: 109 % of control
T/C [8]: 94 % of control

Nc1ncnc2c1c(C1=NCCCN1)cn2C1OC(CO)C(O)C1O (stereo not drawn)
T/C (dose: 12.5 mg/kg/injection, schedule: Q01DX005 (ip), vehicle: saline): 117 % of control
T/C (dose: 50.0 mg/kg/injection, schedule: Q01DX005 (ip), vehicle: saline): 151 % of control

NS(=O)(=O)c1ccc(Cl)cc1
T/C [1]: 95 % of control
T/C [2]: 102 % of control
T/C [9]: 103 % of control
T/C [10]: 104 % of control
T/C [11]: 103 % of control
T/C [12]: 112 % of control
T/C [13]: 103 % of control

C=CCC1CC2CC(C1C)C2(C)C (stereo not drawn)
T/C (dose: 50.0 mg/kg/injection, schedule: Q01DX009 (ip), vehicle: saline with Tween-80): 93 % of control
T/C [3]: 101 % of control
T/C [4]: 93 % of control

CN(C)CC(OCCCc1ccccc1)C(Cl)(Cl)Cl (stereo not drawn)
T/C [10]: 109 % of control
T/C [12]: 101 % of control

O/N=C/c1ccc(O)cc1
T/C (dose: 50.0 mg/kg/injection, schedule: Q01DX001 (ip), vehicle: saline): 96 % of control
T/C [14]: 108 % of control
T/C [15]: 102 % of control

Cc1cc(C)cc(OCC2C(COC(=O)c3cccc(Cl)c3)c3ccccc3N2C)c1 (stereo not drawn)
T/C [16]: 89 % of control
T/C [17]: 94 % of control

CCCOC(=O)Nc1cccc2ccccc12
T/C (dose: 12.5 mg/kg/injection, schedule: Q04DX002 (ip), vehicle: Klucel (hydroxypropylcellulose) (HPC)): 101 % of control
T/C (dose: 25.0 mg/kg/injection, schedule: Q04DX002 (ip), vehicle: Klucel (hydroxypropylcellulose) (HPC)): 86 % of control
T/C (dose: 50.0 mg/kg/injection, schedule: Q04DX002 (ip), vehicle: Klucel (hydroxypropylcellulose) (HPC)): 96 % of control
T/C [9]: 101 % of control

C/C=C1\C(=O)O[C@@]23C=C[C@H]4C(C(=O)OC)=CO[C@@H](O[C@H]12)[C@H]43
T/C (dose: 5.0 mg/kg/injection, schedule: Q01DX001 (ip), vehicle: saline): 103 % of control
T/C (dose: 10.0 mg/kg/injection, schedule: Q01DX001 (ip), vehicle: saline): 103 % of control
T/C (dose: 20.0 mg/kg/injection, schedule: Q01DX001 (ip), vehicle: saline): 106 % of control
T/C (dose: 40.0 mg/kg/injection, schedule: Q01DX001 (ip), vehicle: saline): 103 % of control

O=C1c2cccnc2C(=O)c2c(O)ccc(O)c21
T/C (dose: 50.0 mg/kg/injection, schedule: Q01DX001 (ip), vehicle: carboxymethylcellulose (CMC)): 100 % of control
T/C [6]: 108 % of control
T/C [7]: 100 % of control
T/C [8]: 108 % of control

[Cl][Pt+2][Cl].[NH-]CC1CCCC[N-]1 (stereo not drawn)
T/C (dose: 3.13 mg/kg/injection, schedule: Q04DX003 (ip), vehicle: saline): 111 % of control
T/C (dose: 6.25 mg/kg/injection, schedule: Q04DX003 (ip), vehicle: saline): 108 % of control
T/C (dose: 12.5 mg/kg/injection, schedule: Q04DX003 (ip), vehicle: saline): 122 % of control
T/C [18]: 163 % of control
T/C [19]: 120 % of control

CCCCCCCCCC1=NN(c2cccc(S(=O)(=O)N(C)c3ccccc3)c2)C(=O)C1
T/C [18]: 94 % of control
T/C [19]: 94 % of control
T/C [20]: 91 % of control

CN1C(c2ccc(Cl)cc2)OCC1(C)C (stereo not drawn)
T/C (dose: 100.0 mg/kg/injection, schedule: Q04DX003 (ip), vehicle: saline sonified): 90 % of control
T/C (dose: 200.0 mg/kg/injection, schedule: Q04DX003 (ip), vehicle: saline sonified): 92 % of control

CCCCCC/C=C\[N+](=O)[O-]
T/C (dose: 50.0 mg/kg/injection, schedule: Q01DX001 (ip), vehicle: saline with Tween-80): 109 % of control

O=C1Nc2ccccc2C1=Nc1cccc2ncccc12
T/C (dose: 100.0 mg/kg/injection, schedule: Q01DX001 (ip), vehicle: acetone): 97 % of control
T/C (dose: 200.0 mg/kg/injection, schedule: Q01DX001 (ip), vehicle: acetone): 93 % of control
T/C (dose: 400.0 mg/kg/injection, schedule: Q01DX001 (ip), vehicle: acetone): 100 % of control

CN1CCC(OC(c2ccccc2)c2ccccc2)CC1
T/C (dose: 20.0 mg/kg/injection, schedule: Q01DX009 (ip), vehicle: saline): 107 % of control
T/C (dose: 20.0 mg/kg/injection, schedule: Q04DX003 (ip), vehicle: saline): 108 % of control
T/C (dose: 40.0 mg/kg/injection, schedule: Q01DX009 (ip), vehicle: saline): 113 % of control
T/C (dose: 40.0 mg/kg/injection, schedule: Q04DX003 (ip), vehicle: saline): 105 % of control
T/C (dose: 80.0 mg/kg/injection, schedule: Q04DX003 (ip), vehicle: saline): 95 % of control

CCCCCCCC(=O)N1CCCCC1C (stereo not drawn)
T/C [9]: 103 % of control
T/C [11]: 103 % of control
T/C [13]: 98 % of control

CC1(O)C=Cc2ccccc21 (stereo not drawn)
T/C [10]: 100 % of control
T/C [12]: 95 % of control

O=C(Nc1ccc([N+](=O)[O-])cc1)c1cc(N2CCCC2)ccn1
T/C [14]: 100 % of control
T/C [15]: 96 % of control
T/C (dose: 400.0 mg/kg/injection, schedule: Q01DX001 (ip), vehicle: saline): 100 % of control

CC1(C)CC(N=Cc2ccccc2O)CC(C)(C)N1O.CC1(C)CC(N=Cc2ccccc2O)CC(C)(C)N1O.[Pd]
T/C [10]: 88 % of control
T/C [12]: 90 % of control
T/C [21]: 88 % of control

Cc1cc(OCCBr)ccc1[N+](=O)[O-]
T/C (dose: 100.0 mg/kg/injection, schedule: Q01DX001 (ip), vehicle: Klucel (hydroxypropylcellulose) (HPC)): 92 % of control
T/C (dose: 200.0 mg/kg/injection, schedule: Q01DX001 (ip), vehicle: Klucel (hydroxypropylcellulose) (HPC)): 95 % of control
T/C (dose: 400.0 mg/kg/injection, schedule: Q01DX001 (ip), vehicle: Klucel (hydroxypropylcellulose) (HPC)): 95 % of control

NC(CSCc1ccc([N+](=O)[O-])cc1)C(=O)O (stereo not drawn)
T/C [18]: 102 % of control
T/C [19]: 105 % of control
T/C [20]: 96 % of control

CCCCCCC(=O)C1C(c2ccc(N(C)C)cc2)CC(=O)C(CCCCC)C1c1ccc(N(C)C)cc1 (stereo not drawn)
T/C [3]: 86 % of control
T/C [10]: 89 % of control
T/C [4]: 95 % of control
T/C [12]: 90 % of control
T/C [5]: 95 % of control
T/C [21]: 92 % of control

CC/C(=C\c1cccc([N+](=O)[O-])c1)C(=O)O
T/C [16]: 97 % of control
T/C (dose: 100.0 mg/kg/injection, schedule: Q04DX003 (ip), vehicle: Klucel (hydroxypropylcellulose) (HPC)): 96 % of control
T/C [17]: 92 % of control
T/C (dose: 200.0 mg/kg/injection, schedule: Q04DX003 (ip), vehicle: Klucel (hydroxypropylcellulose) (HPC)): 95 % of control
T/C [22]: 100 % of control
T/C (dose: 400.0 mg/kg/injection, schedule: Q04DX003 (ip), vehicle: Klucel (hydroxypropylcellulose) (HPC)): 95 % of control

Nc1ccccc1SC1CC(=O)N(c2ccccc2Cl)C1=O (stereo not drawn)
T/C [3]: 98 % of control
T/C [4]: 95 % of control
T/C [5]: 97 % of control

CCCCCCCCCCOc1ccc(C=Nc2ccc(CC)cc2)cc1
T/C [16]: 103 % of control
T/C [17]: 90 % of control
T/C [22]: 93 % of control

Source: PubChem BioAssay AID248 (DTP/NCI, 2004)
